Measured values from patent US10639299B2, “Calcium sensing receptors, ligands, compositions, and methods of use” (Georgia State University Research Foundation, Inc., priority 2016, dated 2020).

Target: T1, CaSR (Homo sapiens, UniProt P41180)
T1 sequence (P41180 20-1078): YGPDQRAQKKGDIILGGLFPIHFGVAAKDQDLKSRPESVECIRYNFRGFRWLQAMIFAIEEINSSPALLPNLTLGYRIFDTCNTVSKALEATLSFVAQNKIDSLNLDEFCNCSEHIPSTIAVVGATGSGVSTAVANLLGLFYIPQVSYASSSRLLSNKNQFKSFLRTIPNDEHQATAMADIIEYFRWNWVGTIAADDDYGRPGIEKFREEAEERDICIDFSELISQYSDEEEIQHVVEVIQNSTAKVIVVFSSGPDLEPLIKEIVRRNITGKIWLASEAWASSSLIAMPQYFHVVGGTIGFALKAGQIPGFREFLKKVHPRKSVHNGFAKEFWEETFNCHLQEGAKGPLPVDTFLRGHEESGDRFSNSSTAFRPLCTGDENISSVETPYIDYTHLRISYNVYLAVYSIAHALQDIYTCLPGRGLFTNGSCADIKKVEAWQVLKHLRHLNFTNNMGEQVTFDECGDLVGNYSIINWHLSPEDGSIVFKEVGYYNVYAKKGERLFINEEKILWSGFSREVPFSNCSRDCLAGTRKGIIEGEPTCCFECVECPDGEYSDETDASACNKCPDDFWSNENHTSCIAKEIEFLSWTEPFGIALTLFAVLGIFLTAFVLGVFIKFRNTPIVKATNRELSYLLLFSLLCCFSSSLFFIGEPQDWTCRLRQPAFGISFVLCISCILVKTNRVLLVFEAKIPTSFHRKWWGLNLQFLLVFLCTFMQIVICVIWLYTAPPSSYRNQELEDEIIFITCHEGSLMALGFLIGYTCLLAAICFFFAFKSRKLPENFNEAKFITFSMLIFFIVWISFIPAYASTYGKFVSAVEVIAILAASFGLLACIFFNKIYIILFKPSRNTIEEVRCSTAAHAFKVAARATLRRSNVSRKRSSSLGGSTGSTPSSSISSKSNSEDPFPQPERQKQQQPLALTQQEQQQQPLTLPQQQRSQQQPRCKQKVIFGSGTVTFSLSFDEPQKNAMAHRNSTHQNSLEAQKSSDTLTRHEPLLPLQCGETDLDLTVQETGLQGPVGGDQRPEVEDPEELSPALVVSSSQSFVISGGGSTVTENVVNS
Experiment: [Ca^2+]i signaling (Fura-2) evoked by [Mg^2+]o/[Ca^2+]o in CaSR-expressing HEK293 cells (5001 cell population assay)
Type: cell-based
Parameters: expressed in transfected cells
Description: Measurement of intracellular free Ca^2+ was assessed as described by Huang, et al^33. Briefly, wild type CaSR, or its mutants, were transiently transfected into HEK293 cells grown on coverslips and cultured for 48 h. The cells were subsequently loaded for 15 min using 2 μM Fura-2 AM in 2 mL physiological saline buffer (10 mM HEPES, 140 mM NaCl, 5 mM KCl, 1.0 mM MgCl2 and pH 7.4). The coverslips were mounted in a bath chamber on the stage of a Leica DM6000 fluorescence microscope. The cells were alternately illuminated with 340 or 380 nm light, and the fluorescence at an emission wavelength 510 nm was recorded in real time as the [Ca^2+]o and/or [Mg^2+]o was increased in a stepwise manner in the presence or absence of 0.25 mM TNCA in buffer (10 mM HEPES, 155 mM NaCl, 5 mM KCl, 2 mM NaH2PO4, 0.5 mM MgCl2 and pH 7.4). The ratio of the emitted fluorescence intensities resulting from excitation at both wavelengths was utilized as a surrogate for changes in [Ca^2+]i and was further plotted and analyzed as a function of [Ca^2+]o. All experiments were performed at room temperature. The signals from 20 to 100 single cells were recorded for each measurement. Oscillations were identified as three successive fluctuations in [Ca^2+]i after the initial peak. Determination of the Effect of TNCA on Mg^2+-Evoked [Ca^2+]i Signaling by Stimulation of CaSR in Cell Populations.
Changes in the intracellular Ca^2+ concentration [Ca^2+ ]i elicited by extracellular Mg^2+ ([Mg^2+]o) in a population of cells were measured by fluorimetry as described previously^33. A cell line stably expressing CaSR (designated the “5001 cell line”) was seeded on 13.5×20-mm coverslips and cultured in DMEM. After reaching 95% confluence, cells were washed three times using loading buffer (20 mM HEPES [pH 7.4], 125 mM NaCl, 5 mM KCl, 1.25 mM CaCl2, 1 mM MgCl2, 1 mM NaH2PO4, 1% glucose, and 1% BSA) and subsequently incubated with 4 μM Fura-2 and 4 μM pluronic F127 for 20 minutes at 37° C. to enable sufficient dye loading in the same buffer. After removing the excess Fura-2, coverslips with cells were diagonally positioned in a quartz cuvette filled with 3 ml of experimental buffer (125 mM NaCl, 5 mM KCl, 0.5 mM CaCl2, 0.5 mM MgCl2, 1% glucose, and 1% BSA). Measurements of Fura-2 fluorescence at 510 nm when excited at 340 or 380 nm were performed on a QM1 fluorescence spectrophotometer (PTI). The emission ratio of 340/380 was calculated and used to reflect the changes in [Ca^2+]i when different concentrations of [Mg^2+]o were applied to the cells.
To examine the co-activation of CaSR by TNCA and [Mg^2+]o or [Ca^2+]o, different concentrations of TNCA were placed in the experimental buffer with a fixed concentration of [Ca^2+]o and varying concentrations of [Mg^2+]o, or vice versa, as described in the results section. The effects of other ligands were analyzed by comparing the changes in [Ca^2+ ]i produced by [Mg^2+]o alone or by co-application of Mg^2+ with other ligands. The EC50 of [Mg^2+]o obtained during incubation with various concentrations of TNCA is compared with that observed in the presence of [Mg^2+]o alone. The EC50 changes were plotted as a function of TNCA concentration and the curve was fit to the Hill equation. The activation of CaSR by the TNCA, functioning as a co-agonist with [Mg^2+]o, is indicated by the increasingly leftward-shifted EC50 for [Mg^2+]o as the concentration of TNCA increases (FIG. 6).

## N[C@@H](Cc1ccccc1)C(=O)O [Phe, phenylalanine]
  effect on [Mg^2+]o activation of CaSR: further potentiated
